Assay results as given in US9556139B2, “6-substituted phenoxychroman carboxylic acid derivatives” (Array BioPharma Inc., priority 2008, dated 2017).
Structures can show the parent of a compound that is named as a salt.

The compounds below were run against human DP2 (Homo sapiens (Human), UniProt Q9Y5Y4) (assay: DP-2 Binding Inhibition Assay (3H-PGD2 binding to membranes of K562 cells expressing DP2)). Conditions: EC50 (nM) 4% HSA, inhibition of 3H-PGD2 binding, 4% HSA.
Chain of human DP2 (Q9Y5Y4 whole entry): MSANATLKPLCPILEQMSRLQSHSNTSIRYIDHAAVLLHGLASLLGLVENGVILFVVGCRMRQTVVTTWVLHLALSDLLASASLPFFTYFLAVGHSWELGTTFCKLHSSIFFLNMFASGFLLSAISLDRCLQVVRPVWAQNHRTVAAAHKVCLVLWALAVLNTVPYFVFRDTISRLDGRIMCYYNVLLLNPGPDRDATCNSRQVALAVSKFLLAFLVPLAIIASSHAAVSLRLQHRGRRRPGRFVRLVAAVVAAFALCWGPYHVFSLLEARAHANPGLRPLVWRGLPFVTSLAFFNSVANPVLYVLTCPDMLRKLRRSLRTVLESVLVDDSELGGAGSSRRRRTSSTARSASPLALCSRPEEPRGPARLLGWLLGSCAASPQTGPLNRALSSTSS
Outline: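 Radioligand filtration binding: ³H-PGD2 displacement from DP2-expressing K562 cell membranes, 60 min, room temperature, pH 7.4, under 0.1% BSA, 1% HSA or 4% HSA.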
`COc1cc(C2CC2)ccc1CCNC(=O)c1ccc(Oc2cc3c(cc2Cl)C(C(=O)O)CCO3)cc1` (single isomer, unassigned) [235 Enantiomer 1, 6-chloro-7-(4-(4-cyclopropyl-2-methoxyphenethylcarbamoyl)phenoxy)chroman-4-carboxylic acid] showed an EC50 of over 5000 nM.

Same assay, conditions: assay described in Example A
In the case of `COc1cc(C2CC2)ccc1CCNC(=O)c1ccc(Oc2cc3c(cc2Cl)C(C(=O)O)CCO3)cc1` (single isomer, unassigned) [235 Enantiomer 1, 6-chloro-7-(4-(4-cyclopropyl-2-methoxyphenethylcarbamoyl)phenoxy)chroman-4-carboxylic acid], the “relative activity of the enantiomers in the DP2 binding inhibition assay” value is reported as “less active than the sodium salt of Enantiomer 2”.

Same assay, conditions: read-out: EC50 (Nm) 1% HSA; inhibition of 3H-PGD2 binding, 1% HSA
Compound `O=C(NCCc1ccc(Cl)cc1)c1ccc(Oc2c(Cl)cc3c(c2Cl)OCCC3C(=O)O)cc1` (centres unmarked) [Example 46, Sodium 6,8-dichloro-7-(4-(4-chlorophenethylcarbamoyl)phenoxy)chroman-4-carboxylate] has an EC50 of 15.8 nM.
`N#Cc1cc2c(cc1Oc1ccc(C(=O)NCCc3ccc(C(F)(F)F)cc3)cc1)OCCC2C(=O)O` (centres unmarked) [Example 50, 7-(4-((4-(Trifluoromethyl)phenethyl)carbamoyl)phenoxy)-6-cyano-3,4-dihydro-2H-chromene-4-carboxylic acid] showed an EC50 of 11 nM.
`N#Cc1cc2c(cc1Oc1ccc(C(=O)Nc3ccc4c(c3)CNCC4)cc1)OCCC2C(=O)O` (centres unmarked) [Example 45, 6-Cyano-7-(4-(1,2,3,4-tetrahydroisoquinolin-7-ylcarbamoyl)phenoxy)chroman-4-carboxylic acid hydrochloride] gave an EC50 of 1370 nM.
Work on `N#Cc1cc2c(cc1Oc1ccc(C(=O)NC3CCc4ccccc4C3)cc1)OCCC2C(=O)O` (centres unmarked) [Example 72, 6-Cyano-7-(4-(1,2,3,4-tetrahydronaphthalen-2-ylcarbamoyl)phenoxy)chroman-4-carboxylic acid] yielded an EC50 of 36.4 nM.
`N#Cc1cc2c(cc1Oc1ccc(C(=O)NCCc3ccccc3)cc1)OCCC2C(=O)O` (centres unmarked) [Example 5, 6-Cyano-7-(4-(phenethylcarbamoyl)phenoxy)chroman-4-carboxylic acid] showed an EC50 of 37.4 nM.

Same assay, conditions: read-out: EC50 (nM) 4% HSA; inhibition of 3H-PGD2 binding, 4% HSA
In the case of `O=C(NCCc1ccc(Cl)c(Cl)c1)c1ccc(Oc2cc3c(cc2Cl)C(C(=O)O)CCO3)cc1` (centres unmarked) [Example 138, Sodium 6-chloro-7-(4-(3,4-dichlorophenethylcarbamoyl)phenoxy)chroman-4-carboxylate], the EC50 is reported as 239 nM.
`O=C(NCCc1ccc(Cl)cc1)c1ccc(Oc2c(Cl)cc3c(c2Cl)OCCC3C(=O)O)cc1` (centres unmarked) [Example 46, Sodium 6,8-dichloro-7-(4-(4-chlorophenethylcarbamoyl)phenoxy)chroman-4-carboxylate] showed an EC50 of 176 nM.
`O=C(NCCCc1ccccc1)c1ccc(Oc2cc3c(cc2Cl)C(C(=O)O)CCO3)cc1` (centres unmarked) [Example 78, Sodium 6-chloro-7-(4-(3-phenylpropylcarbamoyl)phenoxy)chroman-4-carboxylate] showed an EC50 of 681 nM.
`O=C(NCCc1ccccc1Cl)c1ccc(Oc2cc3c(cc2Cl)C(C(=O)O)CCO3)cc1` (centres unmarked) [Example 79, Sodium 6-chloro-7-(4-(2-chlorophenethylcarbamoyl)phenoxy)chroman-4-carboxylate] gave an EC50 of 98.9 nM.
With `O=C(NCC(O)c1ccc(Cl)cc1)c1ccc(Oc2cc3c(cc2Cl)C(C(=O)O)CCO3)cc1` (centres unmarked) [Example 184, Sodium 6-chloro-7-(4-(2-(4-chlorophenyl)-2-hydroxyethylcarbamoyl)phenoxy)chroman-4-carboxylate] the EC50 was 824 nM.
For `O=C(NCCc1ccc(C2CC2)cc1)c1ccc(Oc2cc3c(cc2Cl)C(C(=O)O)CCO3)cc1` (centres unmarked) [Example 24, Sodium 6-chloro-7-(4-(4-cyclopropylphenethylcarbamoyl)phenoxy)chroman-4-carboxylate], the EC50 was 482 nM.
`O=C(NCCc1cccc2ccccc12)c1ccc(Oc2cc3c(cc2Cl)C(C(=O)O)CCO3)cc1` (centres unmarked) [Example 86, Sodium 6-chloro-7-(4-(2-(naphthalen-1-yl)ethylcarbamoyl)phenoxy)chroman-4-carboxylate] gave an EC50 of 126 nM.
`COc1cc(Br)ccc1CCNC(=O)c1ccc(Oc2cc3c(cc2Cl)C(C(=O)O)CCO3)cc1` (centres unmarked) [Example 35, Sodium 7-(4-(4-bromo-2-methoxyphenethylcarbamoyl)phenoxy)-6-chlorochroman-4-carboxylate] was tested, and the EC50 was 64.3 nM.
For `O=C(NC1CCC(c2cccc(Cl)c2)C1)c1ccc(Oc2cc3c(cc2Cl)C(C(=O)O)CCO3)cc1` (centres unmarked) [Example 167, 6-Chloro-7-(4-(3-(3-chlorophenyl)cyclopentylcarbamoyl)phenoxy)chroman-4-carboxylic acid], the EC50 was 179 nM.
`CSc1ccccc1CCNC(=O)c1ccc(Oc2cc3c(cc2Cl)C(C(=O)O)CCO3)cc1` (centres unmarked) [Example 117, Sodium 6-chloro-7-(4-(2-(methylthio)phenethylcarbamoyl)phenoxy)chroman-4-carboxylate] gave an EC50 of 246 nM.
`O=C(NC1CCC(c2cccc(F)c2)C1)c1ccc(Oc2cc3c(cc2Cl)C(C(=O)O)CCO3)cc1` (centres unmarked) [Example 171, Sodium 6-chloro-7-(4-(3-(3-fluorophenyl)cyclopentylcarbamoyl)phenoxy)chroman-4-carboxylate] showed an EC50 of 333 nM.
In the case of `O=C(NCCc1ccc(-c2ccccc2Cl)cc1Cl)c1ccc(Oc2cc3c(cc2Cl)C(C(=O)O)CCO3)cc1` (centres unmarked) [Example 29, Sodium 6-chloro-7-(4-(2-(2′,3-dichlorobiphenyl-4-yl)ethylcarbamoyl)phenoxy)chroman-4-carboxylate], the EC50 is reported as 137 nM.
For `O=C(NCCc1ccc(Cl)cc1Cl)c1ccc(Oc2c(C3CC3)cc3c(c2C2CC2)OCCC3C(=O)O)cc1` (centres unmarked) [Example 40, Sodium 6,8-dicyclopropyl-7-(4-(2,4-dichlorophenethylcarbamoyl)phenoxy)chroman-4-carboxylate], the EC50 was 42.2 nM.
Work on `O=C(NCCc1cccn1-c1ccc(C(F)(F)F)cc1)c1ccc(Oc2cc3c(cc2Cl)C(C(=O)O)CCO3)cc1` (centres unmarked) [Example 194, sodium 6-chloro-7-(4-(2-(1-(4-(trifluoromethyl)phenyl)-1H-pyrrol-2-yl)ethylcarbamoyl)phenoxy)chroman-4-carboxylate] yielded an EC50 of 3010 nM.
In the case of `O=C(NCCc1c(F)cccc1Cl)c1ccc(Oc2cc3c(cc2Cl)C(C(=O)O)CCO3)cc1` (centres unmarked) [Example 82, Sodium 6-chloro-7-(4-(2-chloro-6-fluorophenethylcarbamoyl)phenoxy)chroman-4-carboxylate], the EC50 is reported as 473 nM.
`CCOc1ccccc1CCNC(=O)c1ccc(Oc2cc3c(cc2Cl)C(C(=O)O)CCO3)cc1` (centres unmarked) [Example 114, Sodium 6-chloro-7-(4-(2-ethoxyphenethylcarbamoyl)phenoxy)chroman-4-carboxylate] showed an EC50 of 91 nM.
`CSc1cc(Cl)ccc1CCNC(=O)c1ccc(Oc2cc3c(cc2Cl)C(C(=O)O)CCO3)cc1` (centres unmarked) [Example 229, 6-chloro-7-(4-(4-chloro-2-(methylthio)phenethylcarbamoyl)phenoxy)chroman-4-carboxylic acid] showed an EC50 of 67.5 nM.
In the case of `O=C(NC1COC2(CCCC2)C1)c1ccc(Oc2cc3c(cc2Cl)C(C(=O)O)CCO3)cc1` (centres unmarked) [Example 187, Sodium 7-(4-(1-oxaspiro[4.4]nonan-3-ylcarbamoyl)phenoxy)-6-chlorochroman-4-carboxylate], the EC50 is reported as 649 nM.
`O=C(NCCc1cc(F)ccc1Oc1ccc(Cl)c(Cl)c1)c1ccc(Oc2cc3c(cc2Cl)C(C(=O)O)CCO3)cc1` (centres unmarked) [Example 212, sodium 6-chloro-7-(4-(2-(3,4-dichlorophenoxy)-5-fluorophenethylcarbamoyl)phenoxy)chroman-4-carboxylate] was tested, and the EC50 was 81.5 nM.
With `N#Cc1cc2c(cc1Oc1ccc(C(=O)NCC3Cc4ccccc4C3)cc1)OCCC2C(=O)O` (centres unmarked) [Example 126, 6-Cyano-7-(4-((2,3-dihydro-1H-inden-2-yl)methylcarbamoyl)phenoxy)chroman-4-carboxylic acid] the EC50 was 179 nM.
Work on `O=C(NCCCCc1ccc(Cl)cc1)c1ccc(Oc2cc3c(cc2Cl)C(C(=O)O)CCO3)cc1` (centres unmarked) [Example 15, Sodium 6-chloro-7-(4-(4-(4-chlorophenyl)butylcarbamoyl)phenoxy)chroman-4-carboxylate] yielded an EC50 of 746 nM.
With `COc1cc(C2CC2)ccc1CCNC(=O)c1ccc(Oc2cc3c(cc2Cl)[C@@H](C(=O)O)CCO3)cc1` (single isomer, unassigned; enantiomer 2) [235 Enantiomer 2] the EC50 was 17 nM.
For `O=C(NCC/C=C\c1ccc(Cl)cc1Cl)c1ccc(Oc2cc3c(cc2Cl)C(C(=O)O)CCO3)cc1` (centres unmarked) [Example 18, Sodium (Z)-6-chloro-7-(4-(4-(2,4-dichlorophenyl)but-3-enylcarbamoyl)phenoxy)chroman-4-carboxylate], the EC50 was 502 nM.
Work on `O=C(N[C@H]1CCCN(c2cccc(Cl)c2)C1)c1ccc(Oc2cc3c(cc2Cl)C(C(=O)O)CCO3)cc1` (stereo partly drawn) [Example 125, Sodium 6-chloro-7-(4-((S)-1-(3-chlorophenyl)piperidin-3-ylcarbamoyl)phenoxy)chroman-4-carboxylate] yielded an EC50 of 421 nM.
Work on `O=C(NCCc1ccc(-c2ccccc2)cc1Cl)c1ccc(Oc2cc3c(cc2Cl)C(C(=O)O)CCO3)cc1` (centres unmarked) [Example 31, Sodium 6-chloro-7-(4-(2-(3-chlorobiphenyl-4-yl)ethylcarbamoyl)phenoxy)chroman-4-carboxylate] yielded an EC50 of 91.4 nM.
Compound `COc1ccc(CCNC(=O)c2ccc(Oc3cc4c(cc3Cl)C(C(=O)O)CCO4)cc2)cc1` (centres unmarked) [Example 140, Sodium 6-chloro-7-(4-(4-methoxyphenethylcarbamoyl)phenoxy)chroman-4-carboxylate] has an EC50 of 498 nM.
`Cc1cccc(-c2cccc(NC(=O)c3ccc(Oc4cc5c(cc4C#N)C(C(=O)O)CCO5)cc3)c2)c1` (centres unmarked) [Example 108, 6-Cyano-7-(4-(3′-methylbiphenyl-3-ylcarbamoyl)phenoxy)chroman-4-carboxylic acid] was tested, and the EC50 was 69.3 nM.
For `COc1cc(F)ccc1CCNC(=O)c1ccc(Oc2cc3c(cc2Cl)C(C(=O)O)CCO3)cc1` (centres unmarked) [Example 101, Sodium 6-chloro-7-(4-(4-fluoro-2-methoxyphenethylcarbamoyl)phenoxy)chroman-4-carboxylate], the EC50 was 292 nM.
With `O=C(NCCc1ccccc1-c1ccc(Cl)cc1)c1ccc(Oc2cc3c(cc2Cl)C(C(=O)O)CCO3)cc1` (centres unmarked) [Example 94, Sodium 6-chloro-7-(4-(2-(4′-chlorobiphenyl-2-yl)ethylcarbamoyl)phenoxy)chroman-4-carboxylate] the EC50 was 287 nM.
`Cc1ccc(C2CCC(NC(=O)c3ccc(Oc4cc5c(cc4Cl)C(C(=O)O)CCO5)cc3)C2)cc1` (centres unmarked) [Example 166, 6-Chloro-7-(4-(3-p-tolylcyclopentylcarbamoyl)phenoxy)chroman-4-carboxylic acid] showed an EC50 of 272 nM.
Compound `O=C(NCCCCc1ccccc1)c1ccc(Oc2cc3c(cc2Cl)C(C(=O)O)CCO3)cc1` (centres unmarked) [Example 13, Sodium 6-chloro-7-(4-(4-phenylbutylcarbamoyl)phenoxy)chroman-4-carboxylate] has an EC50 of 405 nM.
